Measurements: publication PMC11325505, “Nitrogen-Containing Flavonoids—Preparation and Biological Activity” (ACS Omega, 2024)
Converted amounts (≈) assume the structure as drawn. Where two headings read alike, the source gives them in different places.

Tests used:
RAW 264.7 cells = assay: Cellular antioxidant activity (CAA); type: cell-based, Murine; conditions: for change of antioxidant activity compared to the parent compound, in words: CAA in macrophages; for IC50: Mus musculus, RAW264.7, macrophages RAW 264.7, average of four repetitions ± standard error of the mean
Procedure: To evaluate the antioxidant activity of the prepared derivatives and the respective parent compounds, cellular antioxidant activity (CAA) was measured in macrophages. Compared to other in vitro antioxidant assays, this method provides partial information about the uptake and metabolism of the compounds, because, in this assay, they must first enter the cell to exert antioxidant activity.[31] […] Derivatization of quercetin at C-8 with 4-fluoroaniline (5) increased the antioxidant activity of quercetin by 1.7-fold. […] The concentration of these derivatives required to halve the cellular radicals decreased 1.5-fold compared to luteolin.
Cellular antioxidant capacity was evaluated as previously described.[31],[39] Briefly, 100 μL of RAW 264.7 cells with a density corresponding to 1 × 10^6 cells/mL were split into 96-well plates. After 24 h, cells were washed with PBS, and DMEM supplemented with DCFH-DA (0.0125 mg/mL) was added to each well together with the tested samples in the concentration range of 1.5–200 μM. After 1 h incubation in a CO2 incubator, the medium was replaced with AAPH solution (0.16 mg/mL in PBS), and fluorescence was immediately recorded (ex./em. 485/540 nm) for 2 h in 5 min intervals.

[1] = tested on: nitric oxide (NO) production by RAW 264.7 stimulated by LPS; assay: Anti-inflammatory activity: NO production by LPS-stimulated macrophages; type: cell-based, Murine; conditions: Mus musculus, RAW264.7; LPS-stimulated RAW 264.7; average of four repetitions ± SEM
Procedure: (§1) The anti-inflammatory activity of flavonoids was evaluated as their ability to decrease the production of signaling molecules that mediate inflammation, such as nitric oxide (NO), tumor necrosis factor (TNF-α), and interleukin 6 (IL-6), in LPS-stimulated macrophages.
(§2) The anti-inflammatory activity of the tested flavonoids was determined as the ability to reduce the production of nitric oxide (NO), tumor necrosis factor (TNF-α), and interleukin 6 (IL-6) by RAW 264.7 stimulated by LPS, as previously described.[39],[40] Briefly, 1 × 10^6 cells/mL was seeded into the 96-well plate (100 μL/well). After 48 h, LPS (100 ng/mL) and the samples (3–100 μM) were added to the MEM medium. After 24 h, the medium was mixed with Griess reagent (0.04 g/mL) at a 1:1 ratio. The absorbance was measured after 15 min at 540 nm. Cell viability was determined using the resazurin assay.

[2] = tested on: interleukin 6 (IL-6) production by RAW 264.7 stimulated by LPS; assay: Anti-inflammatory activity: IL-6 production by LPS-stimulated macrophages; type: cell-based, Murine; conditions: for IC50: Mus musculus, RAW264.7, LPS-stimulated RAW 264.7, average of four repetitions ± SEM
Procedure: as §1, §2
To determine TNF-α levels, cells were precultivated with the tested compounds for 24 h. After 2 h of incubation with LPS, the medium was diluted 1:10 with ELISA diluent. To determine the level of IL-6, cells were cultivated for 6 h with LPS and the tested compounds. Cytokine production was determined using an uncoated ELISA performed according to the manufacturer’s instructions.

[3] = tested on: immortalized human keratinocytes (HaCaT); assay: Cytotoxicity (resazurin assay), keratinocytes; type: cell-based; conditions: Homo sapiens, HaCaT, 72 h, read-out: HaCaT IC50 (concentration that halved the viability)
Procedure: The cytotoxicity of the prepared derivatives was evaluated by their ability to decrease the viability of immortalized human keratinocytes (HaCaT) and human dermal fibroblasts (HDF).
100 μL of cell suspension containing 10^5 cells/mL was pipetted into a 96-well plate. After 24 h incubation, the tested compounds were added in the concentration range 12.5–200 μM. After 72 h incubation, the cell viability was tested by standard resazurin assay.[41] Briefly, the cells were washed with PBS and incubated with 100 μL of resazurin solution (0.025 mg/mL) for 2 h. The fluorescence was measured at a wavelength of 560 nm excitation/590 nm emission.

[4] = tested on: Staphylococcus aureus MRSA 9; assay: Modulation of antibiotic-resistant phenotype (flavonoid plus breakpoint concentration of antibiotic); type: cell-based; conditions: MIC determined as IC70, three repetitions ± SEM; for minimum inhibitory concentration (MIC) in the presence of erythromycin: erythromycin at breakpoint concentration 1 mg/L
Procedure: (§3) To evaluate the ability to modulate bacterial resistance, the tested flavonoids themselves cannot exert antimicrobial activity; therefore, the nontoxic concentration was used, as indicated in Table S5. Clinically relevant antibiotics were selected at breakpoint concentrations for susceptibility testing according to the European Committee on Antimicrobial Susceptibility Testing (EUCAST, version 11.0). […] Flavonoids and their derivatives (from 1 μM to the highest nontoxic concentration) were used in combination with the breakpoint concentration of the antibiotics. After coincubation, the minimum inhibitory concentration (MIC) of flavonoids inhibiting the visible growth of bacteria was determined (Table 2).
(§4) Sensitization of multidrug-resistant clinical bacterial strains was performed according to ref[15]. Antibiotic cutoff concentration was chosen according to the European Committee on Antimicrobial Susceptibility Testing (EUCAST, Clinical breakpoints–bacteria, ver. 11.0). The 200 μM concentration of the derivatives was chosen as the highest test concentration. The absorbance detected at 600 nm was then used to estimate the number of viable cells after 24 h of incubation at 37 °C and 120 rpm.
(§5) Experiments were performed with the respective number of replicates indicated in each figure/table. MIC was determined as IC70. Both IC70 and IC50 values were calculated using the following nonlinear regression in the software GraphPad Prism: […]

MRSA 1584 = assay: Mode of antimicrobial action with gentamicin, aac(6')/aph(2')-positive strain; type: cell-based, Staphylococcus aureus; conditions: for effect (mode of action with gentamicin) / FIC (Fractional Inhibitory Concentration Index) / MIC: MRSA 1584; for MIC, Gentamicin [1 mg/L] yes: MRSA 1584 (aac(6')/aph(2')), with gentamicin 1 mg/L; for FIC (Fractional Inhibitory Concentration Index): with gentamicin; for MIC: Staphylococcus aureus, 24 h, read-out: MIC, Gentamicin [1 mg/L] no, without gentamicin
From the text: Among the mechanisms of resistance to gentamicin previously described in S. aureus, the presence of enzymes that alter the structure of aminoglycosides is crucial. These enzymes can transfer nucleotides, phosphates, or acetyls to various −OH or −NH2 groups of gentamicin, preventing its subsequent interaction with the cellular target, i.e., the 30S ribosomal subunit. The bifunctional aminoglycoside-modifying enzyme with acetylation and phosphotransferase activities encoded by the gene aac(6’)/aph(2’), 4′,4″ adenyltransferase encoded by the aadD gene, and aminoglycoside O-phosphotransferase encoded by the gene aph(3′) are the most important.[37] […] For this reason, further testing continued using strains MRSA 3596 and MRSA 1584, which inactivate gentamicin only by a single mechanism (aadD and aac(6’)-aph(2’’), respectively).
as §4, §5

S. aureus CCM 4223 = assay: Antibacterial activity, antibiotic-sensitive strain; type: cell-based; conditions: Staphylococcus aureus, CCM4223, three repetitions ± SEM
S. aureus MRSA 9 = assay: Antibacterial activity, multidrug-resistant strain; type: cell-based; conditions: Staphylococcus aureus, MRSA; multidrug-resistant strain; three repetitions ± SEM
Procedure: as §3, §4, §5

Row | minimum inhibitory concentration (MIC) in the presence of gentamicin ([4]; gentamicin at breakpoint concentration 1 mg/L) [µM] | Compound | change of antioxidant activity compared to the parent compound, in words (RAW 264.7 cells) | IC50 (RAW 264.7 cells) [µM] | IC50 [1] [µM] | IC50 [2] [µM] | IC50 [3] [µM] | minimum inhibitory concentration (MIC) in the presence of erythromycin [4] | effect (mode of action with gentamicin) (MRSA 1584) | MIC, Gentamicin [1 mg/L] yes (MRSA 1584) [µM] | FIC (Fractional Inhibitory Concentration Index) (MRSA 1584) | MIC (MRSA 1584) [µM] | IC50 (S. aureus CCM 4223) [µM] | IC50 (S. aureus MRSA 9) [µM] | ability to inhibit IL-6 production compared to luteolin, in words ([2]; LPS-stimulated macrophages) | IC50 ([3]; 72 h incubation, resazurin, average of three repetitions ± SEM) [µM]
1 | – | O=c1cc(-c2ccc(O)c(O)c2)oc2c(Nc3ccc(C(F)(F)F)cc3)c(O)cc(O)c12 [compound 14, 2-(3,4-Dihydroxyphenyl)-8-(4-(trifluoromethyl)anilino)-5,7-dihydroxy-4H–1-benzopyran-4-one] | significantly decreased the antioxidant activity | > 12.5 | > 25 | 12.4 ± 0.4 | 26.8 ± 1.6 | >15 ^note 5 μM | indifferent (> 1 to < 2 indicates indifference) | 26.1 ± 1.6 (≈ 11.6 µg/mL) | 1.71 ± 0.26 | 15.3 ± 1.3 (≈ 6.81 µg/mL) | 15.3 ± 0.7 | 24 ± 0.1 | – | –
2 | 12.4 ± 0.3 | O=c1cc(-c2ccc(O)c(O)c2)oc2c(Nc3cccc(F)c3)c(O)cc(O)c12 [compound 15, 2-(3,4-Dihydroxyphenyl)-8-(3-fluoroanilino)-5,7-dihydroxy-4H–1-benzopyran-4-one] | significantly decreased the antioxidant activity | 6.7 ± 0.2 | 31.8 ± 0.9 | 8 ± 0.6 | – | >200 µM | additive (> 0.5-1 indicates additive effects) | 27.6 ± 0.5 (≈ 10.9 µg/mL) | 0.96 ± 0.02 | 28.6 ± 0.1 (≈ 11.3 µg/mL) | 28 ± 2.2 | 56.9 ± 1.9 | same ability to inhibit IL-6 production as luteolin | 26 ± 5.8
